From PubChem BioAssay (NCI)
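Method: 48-hour compound exposure of cells in 96-well plates, five concentrations, linear interpolation of endpoints. TGI is the concentration that stops growth completely.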

Key:
Assay in all cases: NCI anticancer screen, dose series, 48 h
786-0 renal = system: 786-0 renal
A498 renal = system: A498 renal
A549 NSCLC = system: A549 NSCLC
ACHN renal = system: ACHN renal
CAKI-1 renal = system: CAKI-1 renal
CCRF-CEM leukemia = system: CCRF-CEM leukemia
COLO 205 colon = system: COLO 205 colon
DMS 114 small cell lung = system: DMS 114 small cell lung
DMS 273 small cell lung = system: DMS 273 small cell lung
EKVX NSCLC = system: EKVX NSCLC
HCT-116 colon = system: HCT-116 colon
HCT-15 colon = system: HCT-15 colon
HL-60(TB) leukemia = system: HL-60(TB) leukemia
HOP-62 NSCLC = system: HOP-62 NSCLC
HOP-92 NSCLC = system: HOP-92 NSCLC
HT29 colon = system: HT29 colon
IGROV1 ovarian = system: IGROV1 ovarian
K-562 leukemia = system: K-562 leukemia
KM12 colon = system: KM12 colon
KM20L2 colon = system: KM20L2 colon
LOX IMVI melanoma = system: LOX IMVI melanoma
LXFL 529 NSCLC = system: LXFL 529 NSCLC
M14 melanoma = system: M14 melanoma
M19-MEL melanoma = system: M19-MEL melanoma
MALME-3M melanoma = system: MALME-3M melanoma
MOLT-4 leukemia = system: MOLT-4 leukemia
NCI-H226 lung = system: NCI-H226 lung
NCI-H23 lung = system: NCI-H23 lung
NCI-H460 lung = system: NCI-H460 lung
NCI-H522 lung = system: NCI-H522 lung
OVCAR-3 ovarian = system: OVCAR-3 ovarian
OVCAR-4 ovarian = system: OVCAR-4 ovarian
OVCAR-5 ovarian = system: OVCAR-5 ovarian
OVCAR-8 ovarian = system: OVCAR-8 ovarian
RPMI-8226 leukemia = system: RPMI-8226 leukemia
RXF 393 renal = system: RXF 393 renal
SF-268 CNS = system: SF-268 CNS
SF-295 CNS = system: SF-295 CNS
SF-539 CNS = system: SF-539 CNS
SK-MEL-2 melanoma = system: SK-MEL-2 melanoma
SK-MEL-28 melanoma = system: SK-MEL-28 melanoma
SK-OV-3 ovarian = system: SK-OV-3 ovarian
SN12C renal = system: SN12C renal
SNB-19 CNS = system: SNB-19 CNS
SNB-78 CNS = system: SNB-78 CNS
SR leukemia = system: SR leukemia
SW-620 colon = system: SW-620 colon
TK-10 renal = system: TK-10 renal
U251 CNS = system: U251 CNS
UACC-257 melanoma = system: UACC-257 melanoma
UACC-62 melanoma = system: UACC-62 melanoma
UO-31 renal = system: UO-31 renal
XF 498 CNS = system: XF 498 CNS
DLD-1 colon = system: DLD-1 colon
HCC-2998 colon = system: HCC-2998 colon
SK-MEL-5 melanoma = system: SK-MEL-5 melanoma
SNB-75 CNS = system: SNB-75 CNS

Q: What does the source list for CC12C=C[C@]3(CC[C@@H]4[C@@](C)(CO)CCC[C@]4(C)C3CC1)C2 (some centres undefined)?
A: TGI (786-0 renal): 30 µM; TGI (A498 renal): 37.7 µM; TGI (A549 NSCLC): 36.7 µM; TGI (ACHN renal): 32 µM; TGI (CAKI-1 renal): 26.2 µM; TGI (CCRF-CEM leukemia): 46.9 µM; TGI (COLO 205 colon): 30.6 µM; TGI (DMS 114 small cell lung): 31.7 µM; TGI (DMS 273 small cell lung): 29.6 µM; TGI (EKVX NSCLC): > 55.8 µM; TGI (HCT-116 colon): 31.9 µM; TGI (HCT-15 colon): 31.1 µM; TGI (HL-60(TB) leukemia): 36.8 µM; TGI (HOP-62 NSCLC): 19.9 µM; TGI (HOP-92 NSCLC): > 65 µM; TGI (HT29 colon): 32.2 µM; TGI (IGROV1 ovarian): 33 µM; TGI (K-562 leukemia): 37.5 µM; TGI (KM12 colon): > 64 µM; TGI (KM20L2 colon): 1.68 µM; TGI (LOX IMVI melanoma): 30.7 µM; TGI (LXFL 529 NSCLC): 30.8 µM; TGI (M14 melanoma): 29.9 µM; TGI (M19-MEL melanoma): 35.7 µM; TGI (MALME-3M melanoma): 47.6 µM; TGI (MOLT-4 leukemia): > 60.4 µM; TGI (NCI-H226 lung): 14.4 µM; TGI (NCI-H23 lung): 33.4 µM; TGI (NCI-H460 lung): 40.1 µM; TGI (NCI-H522 lung): 16.6 µM; TGI (OVCAR-3 ovarian): 33.2 µM; TGI (OVCAR-4 ovarian): 26.7 µM; TGI (OVCAR-5 ovarian): 10.6 µM; TGI (OVCAR-8 ovarian): 41.2 µM; TGI (RPMI-8226 leukemia): 41.6 µM; TGI (RXF 393 renal): 27.3 µM; TGI (SF-268 CNS): 35.4 µM; TGI (SF-295 CNS): 34.1 µM; TGI (SF-539 CNS): 30.5 µM; TGI (SK-MEL-2 melanoma): 43.2 µM; TGI (SK-MEL-28 melanoma): 35.6 µM; TGI (SK-OV-3 ovarian): 33.2 µM; TGI (SN12C renal): 34.4 µM; TGI (SNB-19 CNS): 36.2 µM; TGI (SNB-78 CNS): 36.7 µM; TGI (SR leukemia): 37 µM; TGI (SW-620 colon): 33.8 µM; TGI (TK-10 renal): 34.7 µM; TGI (U251 CNS): 30.9 µM; TGI (UACC-257 melanoma): 33.6 µM; TGI (UACC-62 melanoma): 29.3 µM; TGI (UO-31 renal): 32.2 µM; TGI (XF 498 CNS): 35.3 µM

Q: Which TGI (786-0 renal) does the source give for Nc1ccc(C(=O)N/C(=C\c2cccc([N+](=O)[O-])c2)c2nc3ccccc3[nH]2)cc1 here?
A: The TGI was over 100 µM.

Q: And the TGI (A498 renal)?
A: Its TGI is over 100 µM.

Q: What about the TGI (A549 NSCLC) of the same compound?
A: The TGI was over 100 µM.

Q: What about the TGI (ACHN renal) of the same compound?
A: The TGI was over 100 µM.

Q: What about the TGI (CAKI-1 renal) of the same compound?
A: Its TGI is over 100 µM.

Q: And the TGI (CCRF-CEM leukemia)?
A: Its TGI is over 100 µM.

Q: What about the TGI (COLO 205 colon) of the same compound?
A: The TGI was over 100 µM.

Q: And the TGI (DLD-1 colon)?
A: Its TGI is over 100 µM.

Q: And the TGI (DMS 114 small cell lung)?
A: The TGI was over 100 µM.

Q: And the TGI (DMS 273 small cell lung)?
A: Its TGI is over 100 µM.

Q: And the TGI (EKVX NSCLC)?
A: Its TGI is over 100 µM.

Q: And the TGI (HCC-2998 colon)?
A: The TGI was over 100 µM.

Q: What about the TGI (HCT-116 colon) of the same compound?
A: Its TGI is over 100 µM.

Q: What about the TGI (HCT-15 colon) of the same compound?
A: Its TGI is over 100 µM.

Q: What about the TGI (HL-60(TB) leukemia) of the same compound?
A: Its TGI is over 100 µM.

Q: And the TGI (HOP-62 NSCLC)?
A: The TGI was 67 µM.

Q: And the TGI (HOP-92 NSCLC)?
A: Its TGI is over 66.4 µM.

Q: And the TGI (HT29 colon)?
A: The TGI was over 100 µM.

Q: What about the TGI (IGROV1 ovarian) of the same compound?
A: The TGI was over 100 µM.

Q: And the TGI (K-562 leukemia)?
A: The TGI was over 100 µM.

Q: And the TGI (KM12 colon)?
A: The TGI was over 100 µM.

Q: What about the TGI (KM20L2 colon) of the same compound?
A: The TGI was over 100 µM.

Q: What about the TGI (LOX IMVI melanoma) of the same compound?
A: The TGI was over 100 µM.

Q: What about the TGI (LXFL 529 NSCLC) of the same compound?
A: Its TGI is over 100 µM.

Q: And the TGI (M14 melanoma)?
A: Its TGI is over 100 µM.

Q: And the TGI (M19-MEL melanoma)?
A: The TGI was over 100 µM.

Q: What about the TGI (MALME-3M melanoma) of the same compound?
A: The TGI was over 100 µM.

Q: What about the TGI (MOLT-4 leukemia) of the same compound?
A: Its TGI is over 100 µM.

Q: What about the TGI (NCI-H226 lung) of the same compound?
A: The TGI was over 100 µM.

Q: What about the TGI (NCI-H23 lung) of the same compound?
A: Its TGI is over 100 µM.

Q: What about the TGI (NCI-H460 lung) of the same compound?
A: The TGI was over 100 µM.

Q: What about the TGI (NCI-H522 lung) of the same compound?
A: The TGI was 98.8 µM.

Q: And the TGI (OVCAR-3 ovarian)?
A: The TGI was over 100 µM.

Q: What about the TGI (OVCAR-4 ovarian) of the same compound?
A: The TGI was over 83.3 µM.

Q: And the TGI (OVCAR-5 ovarian)?
A: The TGI was over 100 µM.

Q: And the TGI (OVCAR-8 ovarian)?
A: The TGI was over 100 µM.

Q: What about the TGI (RPMI-8226 leukemia) of the same compound?
A: Its TGI is over 100 µM.

Q: And the TGI (RXF 393 renal)?
A: The TGI was 59.4 µM.

Q: And the TGI (SF-268 CNS)?
A: Its TGI is over 100 µM.

Q: And the TGI (SF-295 CNS)?
A: The TGI was over 100 µM.

Q: What about the TGI (SF-539 CNS) of the same compound?
A: Its TGI is over 100 µM.

Q: What about the TGI (SK-MEL-2 melanoma) of the same compound?
A: Its TGI is over 100 µM.

Q: And the TGI (SK-MEL-28 melanoma)?
A: The TGI was over 100 µM.

Q: What about the TGI (SK-MEL-5 melanoma) of the same compound?
A: Its TGI is over 100 µM.

Q: What about the TGI (SK-OV-3 ovarian) of the same compound?
A: The TGI was over 82.7 µM.

Q: What about the TGI (SN12C renal) of the same compound?
A: Its TGI is over 100 µM.

Q: What about the TGI (SNB-19 CNS) of the same compound?
A: Its TGI is over 100 µM.

Q: And the TGI (SNB-75 CNS)?
A: Its TGI is 69.4 µM.

Q: And the TGI (SNB-78 CNS)?
A: The TGI was over 100 µM.

Q: And the TGI (SR leukemia)?
A: The TGI was over 100 µM.

Q: What about the TGI (SW-620 colon) of the same compound?
A: The TGI was over 100 µM.

Q: And the TGI (TK-10 renal)?
A: Its TGI is over 100 µM.

Q: And the TGI (U251 CNS)?
A: The TGI was over 100 µM.

Q: And the TGI (UACC-62 melanoma)?
A: Its TGI is over 100 µM.

Q: And the TGI (UO-31 renal)?
A: The TGI was 63.8 µM.

Q: What about the TGI (XF 498 CNS) of the same compound?
A: Its TGI is 59.8 µM.
